Laboratory results as given in US20260008775A1, “AZOLE MODULATORS OF CHOLESTEROL BIOSYNTHESIS AND THEIR USE FOR PROMOTING REMYELINATION” (GENENTECH, INC., priority 2022, published 2026).

Experiments:
[1] = target: human emopamil binding protein and human 7-dehydrocholesterol reductase (hEBP-DHCR7) (Homo sapiens (Human), UniProt Q15125); assay: hEBP-DHCR7 radioligand binding assay (filter binding, membranes of co-expressing HEK293 cells); conditions: competition with [3H] radioligand, 8 doses 0.06 to 5000 nM, Ki calculated from IC50
Sequence of human emopamil binding protein and human 7-dehydrocholesterol reductase (hEBP-DHCR7) (Q15125 whole entry): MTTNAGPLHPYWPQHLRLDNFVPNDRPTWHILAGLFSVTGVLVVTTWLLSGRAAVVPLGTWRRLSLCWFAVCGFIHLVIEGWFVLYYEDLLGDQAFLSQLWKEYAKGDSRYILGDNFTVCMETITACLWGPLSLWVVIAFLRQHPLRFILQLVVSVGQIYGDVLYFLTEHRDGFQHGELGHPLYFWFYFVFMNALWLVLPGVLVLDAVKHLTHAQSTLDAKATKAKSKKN
Experimental: Membrane Preparation: human emopamil binding protein and human 7-dehydrocholesterol reductase co-expressing cells were generated by transient transfecting host human embryonic kidney (HEK) 293 cells with 2 DNA constructs containing each protein's coding sequence. Cells were suspension cultured at 37° C. with 5% CO2 in […] 293 Expression Medium (Thermofisher). Whole cell membrane was prepared by harvesting the cell pellet, adding cold membrane buffer (50 mM Tris, pH7.5, 1× Roche COMPLETE EDTA-free protease inhibitor cocktail) 10 times volume of the cell pellets weight, lysing cell pellet on ice by using Dounce homogenizer, spinning at 200 g 4° C. for 15 min, collecting supernatant and spinning again at 25000 g 4° C. for 50 min, transferring pellet to Dounce homogenizer, re-suspending pellet by homogenizing in membrane buffer on ice to reach ˜25 mg/mL, then keeping whole cell membrane aliquots at −80° C.
Compounds were prepared in a 96-well U bottom plate (Corning Cat #7007) using an Echo550 machine and 10 mM compound DMSO stock solution, followed by an 8-dose 5-fold serial dilutions protocol with final testing compound concentration ranging from 0.06 to 5000 nM, with DMSO back fill to 100 nL/well and n=2. […] The UniFilter-96 GF/B plates (PerkinElmer Cat #6005177) were pre-treated by adding 50 μl/well of 0.3% (v/v) Polyethylenimine (PEI) (branched, Sigma Cat #408727) to UniFilter-96 GF/B plates. The plates were sealed and incubated at 4° C. for 3 hrs. Then, the plates were washed with ice-cold assay buffer 3 times. The radioligand binding assay was prepared by adding assay buffer diluted hEBP-DHCR7 membrane at 66.7 µg/ml×150 μl/well into the 96-well compound plate to reach 10 μg membrane per well. Then, the assay buffer diluted [3H]—(S)-6-(2-Methyl-3-(6-(trifluoromethyl)pyridin-3-yl)propyl)-2-thia-6-azaspiro[3.4]octane 2,2-dioxide (Moravek, Cat #MT-1003106) was added at 25 nM×50 μl/well. Following this, the plate was centrifuged at 1000 rpm for 30 secs. The plate was then sealed and agitated at 600 rpm at 22° C. for 5 min, and then incubated at 22° C. for 3 hrs. The incubation was stopped by transferring the binding solution to the pre-treated UniFilter-96 GF/B plate, vacuum filtrated, and then washed four times with ice-cold assay buffer. Following this, the plates were dried at 37° C. for 45 min. The plates were then sealed at the bottom. 40 µl/well of scintillation cocktail was added to the plates. A MicroBeta2 microplate counter was then used to read the plate and analyze the data. For reference and test compounds, the results are expressed as % Inhibition, using the normalization equation: N=100−100×(U−C2)/(C1−C2), where U is the unknown value, C1 is the average of high controls, and C2 is the average value of low controls.

[2] = system: zymostenol accumulation (EBP) in EpiSC-derived OPCs; assay: GC/MS-based sterol profiling, zymostenol accumulation in EpiSC-derived OPCs; type: cell-based, mouse; conditions: Mus musculus, 24 h, EpiSC-derived OPCs, 24 hr, 8 doses from 0.15 nM to 333 nM; read-out: Mouse Zymostenol GCMS EC50
Experimental: To assess effects of treatments on OPCs, all treatments were assayed in two or more independent platings of epiblast stem cell-derived OPCs (EpiSC). EpiSC-derived OPCs were obtained using in vitro differentiation protocols and culture conditions described previously (Najm et al, 2011, Nature Methods). OPCs were expanded and frozen down in aliquots. OPCs were thawed into growth conditions for at least one passage before use in further assays.
Sterols were monitored using a modified Folch wash protocol (Hubler et al, 2018, Nature). EpiSC-derived OPCs were plated at 100,000 cells per well in PO- and laminin-coated 96-well plates in N2B27 media without growth factors. After 24 hours, cells were rinsed with saline and plates were frozen. Cholesterol-d7 standard was then added to each well before drying under nitrogen stream and derivatization with 55 μl of bis(trimethylsilyl) trifluoroacetamide. After derivatization, 2 μl were analyzed by gas chromatography/mass spectrometry using an Agilent 5973 Network Mass Selective Detector equipped with a 6890 gas chromatograph system and a HP-5MS capillary column (30 m×0.25 mm×[…]). Samples were analyzed in full scan mode using electron impact ionization; ion fragment peaks were integrated to calculate sterol abundance, and quantitation was relative to cholesterol-d7. The following ion fragments were used to quantitate each metabolite: cholesterol-d7 (465), FF-Mas (482), cholesterol (368), zymostenol (458), zymosterol (456), Desmosterol (456, 343), 7-dehydrocholesterol (456, 325), lanosterol (393), lathosterol (458), 14-dehydrozymostenol (456, 351). […] All standards were obtained from Avanti Polar Lipids unless otherwise indicated. Calibration curves were generated by injecting varying concentrations of sterol standards and maintaining a fixed amount of cholesterol-D7. For normalized zymostenol accumulation results, the total amount of zymostenol measured after drug treatment was divided by the total amount of zymostenol accumulated after 24 hr treatment with 100 nM positive control reference.

| SMILES | Ki [1] | EC50 [2] |
| --- | --- | --- |
| CC(C)n1nc(-c2cccc(C(F)(F)F)n2)cc1[C@H]1[C@@H]2C[C@@H](N3CCN(C4CCC4)CC3)C[C@@H]21 [Compound 84, 1-Cyclobutyl-4-((1R,3s,5S,6r)-6-(1-isopropyl-3-(6-(trifluoromethyl)pyridin-2-yl)-1H-pyrazol-5-yl)bicyclo[3.1.0]hexan-3-yl)piperazine] | 27.8 nM | 3.49 nM |
| CC(C)n1nc(-c2cccc(C(F)(F)F)n2)cc1[C@H]1[C@@H]2C[C@H](N3CCN(C4CCC4)CC3)C[C@@H]21 [Compound 85, 1-Cyclobutyl-4-((1R,3r,5S,6r)-6-(1-isopropyl-3-(6-(trifluoromethyl)pyridin-2-yl)-1H-pyrazol-5-yl)bicyclo[3.1.0]hexan-3-yl)piperazine] | 472 nM | 279 nM |
| CC(C)n1nc(-c2cnc(C(F)(F)F)nc2)nc1[C@H]1CC[C@H](N2CCOCC2)C1 [Compound 94, 4-((1S,3S)-3-(1-Isopropyl-3-(2-(trifluoromethyl)pyrimidin-5-yl)-1H-1,2,4-triazol-5-yl)cyclopentyl)morpholine] | 243 nM | 187 nM |
| CC(C)n1nc(-c2cnc(C(F)(F)F)nc2)cc1[C@H]1[C@@H]2C[C@@H](N3CCOC[C@H]3C)C[C@@H]21 [Compound 96, (R)-4-((1R,3s,5S,6R)-6-(1-Isopropyl-3-(2-(trifluoromethyl)pyrimidin-5-yl)-1H-pyrazol-5-yl)bicyclo[3.1.0]hexan-3-yl)-3-methylmorpholine] | 631 nM | 928 nM |
| CC(C)n1nc(-c2ccnc(C(F)(F)F)n2)cc1[C@H]1[C@@H]2C[C@H](N3CCOCC3)C[C@@H]21 [Compound 99, 4-((1R,3r,5S,6r)-6-(1-Isopropyl-3-(2-(trifluoromethyl)pyrimidin-4-yl)-1H-pyrazol-5-yl)bicyclo[3.1.0]hexan-3-yl)morpholine] | 87.8 nM | 62 nM |
| CC(C)n1nc(-c2ccnc(C(F)(F)F)n2)cc1[C@H]1[C@@H]2C[C@@H](N3CCOC[C@@H]3C)C[C@@H]21 [Compound 100, (S)-4-((1R,3s,5S,6S)-6-(1-Isopropyl-3-(2-(trifluoromethyl)pyrimidin-4-yl)-1H-pyrazol-5-yl)bicyclo[3.1.0]hexan-3-yl)-3-methylmorpholine] | 11 nM | 5.99 nM |
| CC(C)n1nc(-c2ccnc(C(F)(F)F)n2)cc1[C@H]1[C@@H]2C[C@@H](N3CCOC[C@H]3C)C[C@@H]21 [Compound 102, (R)-4-((1R,3s,5S,6S)-6-(1-Isopropyl-3-(2-(trifluoromethyl)pyrimidin-4-yl)-1H-pyrazol-5-yl)bicyclo[3.1.0]hexan-3-yl)-3-methylmorpholine] | 73 nM | 55 nM |
| CC(C)n1nc(-c2cncc(C(F)(F)F)n2)cc1[C@H]1[C@@H]2C[C@H](N3CCOCC3)C[C@@H]21 [Compound 108, 4-((1R,3r,5S,6r)-6-(1-Isopropyl-3-(6-(trifluoromethyl)pyrazin-2-yl)-1H-pyrazol-5-yl)bicyclo[3.1.0]hexan-3-yl)morpholine] | 87.8 nM | 62 nM |
| CC(C)n1nc(-c2cncc(C(F)(F)F)c2)nc1[C@H]1[C@@H]2C[C@@H](N3CCOC[C@H]3C)C[C@@H]21 [Compound 119, (R)-4-((1R,3s,5S,6R)-6-(1-Isopropyl-3-(5-(trifluoromethyl)pyridin-3-yl)-1H-1,2,4-triazol-5-yl)bicyclo[3.1.0]hexan-3-yl)-3-methylmorpholine] | 584 nM | 213 nM |
| CC(C)n1nc(-c2cncc(C(F)(F)F)c2)nc1[C@H]1[C@@H]2C[C@@H](N3CCOC[C@@H]3C)C[C@@H]21 [Compound 121, (S)-4-((1R,3s,5S,6R)-6-(1-Isopropyl-3-(5-(trifluoromethyl)pyridin-3-yl)-1H-1,2,4-triazol-5-yl)bicyclo[3.1.0]hexan-3-yl)-3-methylmorpholine] | 564 nM | 193 nM |
| CC(C)n1nc(-c2cncc(C(F)(F)F)c2)nc1[C@H]1[C@@H]2C[C@H](N3CCOC[C@@H]3C)C[C@@H]21 [Compound 122, (S)-4-((1R,3r,5S,6R)-6-(1-Isopropyl-3-(5-(trifluoromethyl)pyridin-3-yl)-1H-1,2,4-triazol-5-yl)bicyclo[3.1.0]hexan-3-yl)-3-methylmorpholine] | 26.6 nM | 7.81 nM |
| CC[C@H]1CN([C@@H]2CC[C@H](c3nc(-c4cncc(F)c4)nn3C(C)C)C2)CCO1 [Compound 123, (S)-2-Ethyl-4-((1R,3S)-3-(3-(5-fluoropyridin-3-yl)-1-isopropyl-1H-1,2,4-triazol-5-yl)cyclopentyl)morpholine] | 40.4 nM | 10.6 nM |
| CC[C@@H]1CN([C@@H]2CC[C@H](c3nc(-c4cncc(F)c4)nn3C(C)C)C2)CCO1 [Compound 124, (R)-2-Ethyl-4-((1R,3S)-3-(3-(5-fluoropyridin-3-yl)-1-isopropyl-1H-1,2,4-triazol-5-yl)cyclopentyl)morpholine] | 2400 nM | 376 nM |
| CC(C)n1nc(-c2cncc(Cl)c2)nc1[C@H]1CC[C@H](N2CCOC[C@@H]2C)C1 [Compound 125, (S)-4-((1S,3S)-3-(3-(5-Chloropyridin-3-yl)-1-isopropyl-1H-1,2,4-triazol-5-yl)cyclopentyl)-3-methylmorpholine] | 245 nM | 716 nM |
| CC(C)n1nc(-c2cncc(Cl)c2)nc1[C@H]1CC[C@@H](N2CCOC[C@@H]2C)C1 [Compound 126, (S)-4-((1R,3S)-3-(3-(5-Chloropyridin-3-yl)-1-isopropyl-1H-1,2,4-triazol-5-yl)cyclopentyl)-3-methylmorpholine] | 30.8 nM | 6.79 nM |
| CC[C@H]1CN([C@@H]2CC[C@H](c3nc(-c4ccc(C(F)(F)F)nc4)nn3C(C)C)C2)CCO1 [Compound 128, (S)-2-Ethyl-4-((1R,3S)-3-(1-isopropyl-3-(6-(trifluoromethyl)pyridin-3-yl)-1H-1,2,4-triazol-5-yl)cyclopentyl)morpholine] | 118 nM | 16.6 nM |
| CC[C@@H]1CN([C@@H]2CC[C@H](c3nc(-c4cncc(Cl)c4)nn3C(C)C)C2)CCO1 [Compound 129, (R)-4-((1R, 3S)-3-(3-(5-Chloropyridin-3-yl)-1-isopropyl-1H-1,2,4-triazol-5-yl)cyclopentyl)-2-ethylmorpholine] | 23.2 nM | 2.79 nM |
| CC(C)n1nc(-c2cnc(C(F)(F)F)nc2)nc1[C@H]1CC[C@H](N2CCO[C@H](C)C2)C1 [Compound 145, (R)-4-((1S,3S)-3-(1-isopropyl-3-(2-(trifluoromethyl)pyrimidin-5-yl)-1H-1,2,4-triazol-5-yl)cyclopentyl)-2-methylmorpholine] | 299 nM | 83.5 nM |
